Legend:
[1] = tested on: MelJuSo melanoma cells; test: MTS cell viability assay, MelJuSo; type: cell-based; settings: Homo sapiens, MEL-JUSO, 24 h, read-out: IC50 (concentration reducing number of viable cells by 50%)
Method: Cells were cultured at indicated densities for 24 h, medium was removed and the incubation was continued in a fresh culture medium containing various GC2 or DTIC concentrations. In control experiments, cells were grown in a culture medium containing GC2 buffer.
The standard […] (MTS)-3-(4,5-dimethylthiazol-2-yl)-5-(3-carboxymethoxyphenyl)-2-(4-sulphophenyl)-2H-tetrazolium inner salt solution assay was performed in order to examine the cytotoxic/cytostatic effect of GC2 on melanoma cells. Briefly, 7.5×10^3 cells were seeded in 96-well microtiter plates (Nunc). After an overnight incubation, serial dilutions of GC2 or DTIC were added in triplicate to a final volume of 100 μl. The blank was represented by a culture medium without cells containing the highest GC2 or DTIC concentration. After 24 h of incubation 20 μl MTS was added to each well and all samples were incubated for 3 h at 37° C. An absorbance of each well was read at 450 nm in a microplate reader. A percentage of cell viability was calculated considering that 100% cell viability was represented by an absorbance of untreated samples […]. Alternatively, the number of viable cells was determined by Trypan blue exclusion test. Melanoma cells treated with GC2 were trypsinized and cells negative for blue staining (viable cells) were counted using a hemocytometer. […]

[2] = tested on: MelJuSo cells; test: Cell cycle distribution analysis (PI, flow cytometry), MelJuSo; type: cell-based, human; settings: 6 μM, 24 h
Method: Cell cycle analysis in melanoma cells treated with GC2 was performed by determining DNA content using propidium iodide (PI) staining. PI intercalates into the major groove of double stranded DNA and produces a highly fluorescent adduct that can be excited at 488 nm and with a broad emission centered at 600 nm, see e.g. Krishan A. J. Cell. Biol. 66, 188, 1975. Melanoma cells (20×10^4) were cultured in 25 cm^2 tissue culture flasks for 24 h, followed by a further incubation for indicated time periods with 6 μM GC2. After treatment, adherent cells were trypsinized and a number of viable cells was determined by trypan blue exclusion. […] cells were re-suspended in 200 μl FACS buffer (2% FCS in PBS) and fixed with 600 μl absolute methanol, dropwise added under gentle vortexing, for at least 2 h at −20° C. Fixed cells were washed with FACS buffer, centrifuged for 5 min at 1500 rpm, at 4° C., and incubated for 30 min, in the dark, at room temperature (RT) with 200 μl PI staining solution in 3.8 mM sodium citrate (10 μl RNaze 10 μg/ml previously boiled for 5 min and 1 μl PI 10 mg/ml). The staining solution was removed by centrifugation and the cell pellet was re-suspended in 200 μl FACS buffer. Samples were analyzed for DNA content using a FACScan™ using CellQuest™ software (Becton Dickinson, San Jose, Calif.). […]

[3] = tested on: B16F10 cells; test: Annexin V/PI double labeling, flow cytometry, B16F10; type: cell-based, murine; settings: B16F10, 6 μM
Method: Apoptosis in GC2-treated melanoma cells was detected using Annexin V and PI double labeling assay, see van Engeland, M., et al., Cytometry, 31, 1-9, 1998. Annexin V/PI labeling was applied to both fluorescence microscopy and flow cytometry following the protocol supplied by the manufacturer. Briefly, for fluorescence microscopy analysis adherent cells (approximately 16×10^4) treated with GC2 were washed with annexin V binding buffer, and incubated with Alexa Fluor® 488 Annexin V (5 μl in 1 ml annexin V binding buffer) for 15 min at RT, in the dark, to which 0.2 μg PI was added. Live cells were washed with annexin V binding buffer and examined by microscopy. For flow cytometric analysis, cells treated with GC2 were harvested by trypsinisation and a number of viable cells was counted. 16×10^4 cells were re-suspended in 0.2 ml annexin V binding buffer and treated in the same were adherent cells. Finally, labeled cells were analyzed with a FACScan™ using CellQuest™ software (Becton Dickinson, San Jose, Calif.).
Cells cultured under normal conditions for 24 h were further treated for 5 h, 8 h or 24 h with 6 μM of GC2, labeled with annexin V and PI and quantitatively analyzed by flow cytometry for viable, apoptotic and necrotic populations (FIG. 7).

`CC(=O)O.CCCCCCCCCN1[C@@H](CO)[C@@H](O)[C@H](O)[C@@H]1CCCCCCCC` [GC2, (2S,3R,4R,5S)-3,4-dihydroxy-N-nonyl-5-octyl-2 hydroxymethylpyrrolidinium acetate] was tested, and the IC50 [1] was 7 to 8 µM, the “number of cells in G2 phase” value ([2]; untreated 17.7%) was 8.48% and the “proportion of surviving cells in G0/G1 phase” value ([2]; untreated 51.20%) was 60.00%. For the same molecule, the “number of viable, apoptotic or necrotic cells” value ([3]; 5 h) was “did not change significantly”, the “increase of apoptotic cells versus control (factor)” value ([3]; 8 h) was 1.7 and the “increase of necrotic fraction versus control” value ([3]; 8 h) was “approximately doubled”. The apoptotic cells ([3]; 8 h, control 1.95%) was 3.44%, the necrotic fraction ([3]; 8 h, control 4.28%) was 8.78% and the “increase of apoptotic cells versus control (factor)” value ([3]; 24 h) was 2.9. For the same molecule, the “increase of necrotic fraction versus control (factor)” value ([3]; 24 h) was 4.4, the apoptotic cells ([3]; 24 h, control 2.28%) was 6.72% and the necrotic fraction ([3]; 24 h, control 4.95%) was 22.16%.

Source: patent US8957106B2, “Iminosugar treatment of tumors” (The Chancellor, Masters and Scholars of the University of …, priority 2007, dated 2015)
